# Biological target: T1, h-Sortilin (Homo sapiens, UniProt Q99523)
# T1 sequence (Q99523 78-831): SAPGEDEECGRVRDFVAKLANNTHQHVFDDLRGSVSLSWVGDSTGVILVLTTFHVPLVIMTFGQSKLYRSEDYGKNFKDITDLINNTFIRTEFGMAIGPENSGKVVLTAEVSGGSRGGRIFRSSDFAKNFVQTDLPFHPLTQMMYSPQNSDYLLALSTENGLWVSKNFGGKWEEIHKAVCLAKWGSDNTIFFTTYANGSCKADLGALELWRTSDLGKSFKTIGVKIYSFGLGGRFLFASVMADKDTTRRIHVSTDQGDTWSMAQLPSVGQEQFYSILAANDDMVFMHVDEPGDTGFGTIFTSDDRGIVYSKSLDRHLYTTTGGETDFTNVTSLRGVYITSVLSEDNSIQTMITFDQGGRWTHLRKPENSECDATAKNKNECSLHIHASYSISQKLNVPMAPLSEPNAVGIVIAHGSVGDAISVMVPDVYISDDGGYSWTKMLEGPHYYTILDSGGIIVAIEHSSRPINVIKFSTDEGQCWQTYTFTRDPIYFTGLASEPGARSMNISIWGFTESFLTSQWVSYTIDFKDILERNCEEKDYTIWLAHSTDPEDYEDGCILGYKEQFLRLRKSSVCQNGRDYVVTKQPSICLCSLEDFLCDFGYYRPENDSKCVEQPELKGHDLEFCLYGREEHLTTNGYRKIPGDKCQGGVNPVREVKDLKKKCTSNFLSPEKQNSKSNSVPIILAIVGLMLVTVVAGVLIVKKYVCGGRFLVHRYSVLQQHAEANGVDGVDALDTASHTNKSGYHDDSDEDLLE
# Assay: Neurotensin scintillation proximity assay (displacement of [3H]-neurotensin binding)
# Conditions: 150 nM 6his-Sortilin, 5 nM [3H]-Neurotensin; average of at least 2 determinations; read-out: IC50 [3H]Neurotensin SPA
# Method: The exemplified compounds of the invention were tested in a Neurotensin (NTS) scintillation proximity assay (SPA). NTS, which is a 13 amino acid neuropeptide, is a sortilin ligand. The IC50 is a measure of the amount of the compound required to inhibit the binding of NTS to sortilin by 50%. The skilled person will recognise that the lower the IC50 value, the less of the compound needed to achieve the desired effect, and as a result, the chances of undesirable off-target effects are reduced.
# Compound affinity was determined by measuring the displacement of [3H]-neurotensin binding to h-Sortilin in SPA format. Total volume of 40 µl in 50 mM HEPES pH 7.4 assay buffer containing 100 mM NaCl, 2.0 mM CaCl2, 0.1% BSA and 0.1% Tween-20. Compound pre-incubation for 30 minutes at room temperature with 150 nM of 6his-Sortilin before 5 nM [3H]-Neurotensin and Ni chelate imaging beads (Perkin Elmer) were added, after 6 hours the plate was read on a ViewLux with 360 s exposure time. Dose-response evaluation of compounds was performed with 8 concentrations of drugs (covering 3 decades). IC50 values were calculated by nonlinear regression using the sigmoid concentration-response (variable slope) using CDD Vault software. All values reported are average of at least 2 determinations.
row,IC50 [nM],SMILES
1,470,"CN1CCc2ccc(CN[C@@H](CCC(C)(C)C)C(=O)O)cc2C1 [Example 20, (2S)-5,5-dimethyl-2-{[(2-methyl-1,2,3,4-tetrahydroisoquinolin-7-yl)methyl]amino}hexanoic acid]"
2,630,"CN1CCc2cc(CN[C@@H](CCC(C)(C)C)C(=O)O)ccc2C1=O [Example 24, (2S)-5,5-dimethyl-2-{[(2-methyl-1-oxo-1,2,3,4-tetrahydroisoquinolin-6-yl)methyl]amino}hexanoic acid]"
3,850,CC(C)(C)CC[C@H](NCc1cccc2c1CCC2)C(=O)O [Example 74]
4,700,CC(C)(C)CC[C@H](NCc1ccc2c(c1)CCO2)C(=O)O [Example 66]
5,520,"Cc1cc(CN[C@@H](CCC(C)(C)C)C(=O)O)cc2c1CCC2 [Example 26, (2S)-5,5-dimethyl-2-{[(7-methyl-2,3-dihydro-1H-inden-5-yl)methyl]amino}hexanoic acid]"
6,760,"CN1C(=O)CCc2cc(CN[C@@H](CCC(C)(C)C)C(=O)O)ccc21 [Example 27, (2S)-5,5-dimethyl-2-{[(1-methyl-2-oxo-1,2,3,4-tetrahydroquinolin-6-yl)methyl]amino}hexanoic acid]"
7,290,"CC(C)(C)CC[C@H](NCc1ccc2c(c1)NC(=O)CC2)C(=O)O [Example 29, (2S)-5,5-dimethyl-2-{[(2-oxo-1,2,3,4-tetrahydroquinolin-7-yl)methyl]amino}hexanoic acid]"
8,430,"CN1CCc2ccc(CN[C@@H](CCC(C)(C)C)C(=O)O)cc2C1=O [Example 23, (2S)-5,5-dimethyl-2-{[(2-methyl-1-oxo-1,2,3,4-tetrahydroisoquinolin-7-yl)methyl]amino}hexanoic acid]"
9,570,"CN(C)c1cccc(CN[C@@H](CCC(C)(C)C)C(=O)O)c1 [Example 37, (2S)-2-({[3-(dimethylamino)phenyl]methyl}amino)-5,5-dimethylhexanoic acid]"
10,900,"CC(C)(C)CC[C@H](NCc1ccc2c(c1)CCC(=O)N2)C(=O)O [Example 31, (2S)-5,5-dimethyl-2-{[(2-oxo-1,2,3,4-tetrahydroquinolin-6-yl)methyl]amino}hexanoic acid]"
11,900,"CC(C)(C)CC[C@H](NCc1ccc2c(c1)CCNC2)C(=O)O [Example 15, (S)-5,5-dimethyl-2-(((1,2,3,4-tetrahydroisoquinolin-6-yl)methyl)amino)hexanoic acid]"
12,580,CC(C)(C)CC[C@H](NCc1cnc2c(c1)CCCO2)C(=O)O [Example 53]
13,430,CC(C)(C)CC[C@H](NCc1ccc2c(c1)OCC2)C(=O)O [Example 62]

# The remaining lines, values behind:
row,SMILES,IC50 [nM]
1,C[C@H](N[C@@H](CCC(C)(C)C)C(=O)O)c1ccc2c(c1)CCCC2 [Example 12],610
2,"CC(C)(C)CCC(N[C@@H](CCO)c1ccccc1)C(=O)O (mixture of isomers) [Example 39, 2-{[(1S)-3-hydroxy-1-phenylpropyl]amino}-5,5-dimethylhexanoic acid]",410
3,CC(C)(C)CC[C@H](NCc1cccc(N2CCCC2)c1)C(=O)O [Example 77],350
4,C[C@H](N[C@@H](CCC(C)(C)C)C(=O)O)c1ccc2c(c1)COCC2 [Example 69],590
5,CC(C)(C)CC[C@H](NCc1cccc2c1CCOC2)C(=O)O [Example 63],650
6,C[C@@H](N[C@@H](CCC(C)(C)C)C(=O)O)c1ccc2c(c1)COCC2 [Example 64],420
7,CC(C)(C)CC[C@H](NCc1cccc2c1COCC2)C(=O)O [Example 67],500
8,"CC(C)(C)CC[C@H](NCc1cccc(-n2cncn2)c1)C(=O)O [Example 35, (2S)-5,5-dimethyl-2-({[3-(1H-1,2,4-triazol-1-yl)phenyl]methyl}amino)hexanoic acid]",960
9,C[C@@H](N[C@@H](CCC(C)(C)C)C(=O)O)c1cccc2c1OCCO2 [Example 75],1220
10,"CC(C)(C)CC[C@H](N[C@H](CCO)c1ccccc1)C(=O)O [Example 40, (2S)-2-{[(1R)-3-hydroxy-1-phenylpropyl]amino}-5,5-dimethylhexanoic acid]",6450
11,CC(C)(C)CC[C@H](NCc1cccc2c1COC2)C(=O)O [Example 65],620
12,CC(C)(C)CC[C@H](NCc1ccc(Oc2ccccc2)cc1)C(=O)O [Example 36],520
13,Cc1cc(CN[C@@H](CCC(C)(C)C)C(=O)O)cc2c1CCCO2 [Example 55],310
14,COc1cccc([C@@H](CCO)N[C@@H](CCC(C)(C)C)C(=O)O)c1 [Example 42],590
15,C[C@H](N[C@@H](CCC(C)(C)C)C(=O)O)c1cccc2c1OCCO2 [Example 73],650
16,COc1cccc([C@H](CCO)N[C@@H](CCC(C)(C)C)C(=O)O)c1 [Example 41],760
17,CC(C)(C)CC[C@H](NCc1cnc2c(c1)OCCO2)C(=O)O [Example 60],820
18,"CC(C)(C)CC[C@H](NCc1ccc2c(c1)N(C(=O)OC(C)(C)C)CCC2)C(=O)O [Example 32, (2S)-2-[({1-[(tert-butoxy)carbonyl]-1,2,3,4-tetrahydroquinolin-7-yl}methyl)amino]-5,5-dimethylhexanoic acid]",130
19,C[C@H](N[C@@H](CCC(C)(C)C)C(=O)O)c1ccc2c(c1)OCCC2 [Example 57],300
